In PubChem BioAssay AID1963851 (Molecular Pharmacology Branch, DTP, NCI, 2024):
Where “and” joins values, the source holds several entries; their conditions need not be identical. Identical values can stand only once.

Test system: 188146-221-R-J1-PDC complex spheroid viability
Assay: Anticancer human tumor 188146-221-R-J1-PDC patient-derived colon adenocarcinoma cell line growth inhibition [POLQ]
Conditions: for viability, T/C: stronger effect = lower value
Method: Multicellular complex tumor spheroid response to Polymerase (POL) inhibitors (novobiocin, ART-558, RP6685) in combination with a variety of drugs and investigational agents in selected tumor cell lines
The POL inhibitors (novobiocin, ART-558, and RP6685) were evaluated both individually and in combination with standard of care and investigational anticancer small molecules within a complex spheroid model of solid tumors. . Complex spheroids include a stromal component modeled by human endothelial cells (HUVEC) and fibroblasts modeled by human mesenchymal stem cells (MSCs). The concentration ranges selected for each drug and investigational agent were based upon clinically achievable concentrations if the clinical Cmax of the agent was known.
Compounds. The drugs and investigational agents: novobiocin (NSC847541), ART-558 (NSC835418), RP-6685 (NSC848927), peposertib (NSC802822), ceralasertib (NSC780249), elimusertib (NSC800525), camonsertib (NSC841442), AZD-1390 (NSC803789), olaparib (NSC753686), talazoparib (NSC767125), rucaparib (NSC756644), sotorasib (NSC818433), MRTX-1133 (NSC836407), SN-38 (NSC673596), topotecan (NSC609699), epotoside (NSC141540), doxorubicin (NSC123127), gemcitabine (NSC613327), 5-fluorouracil (NSC19893), paclitaxel (NSC125973), vemurafenib (NSC761431), MSA-2 (NSC828583), SN-011 (NSC837082), adavosertib (NSC754352), prexasertib (NSC758257), carboplatin (NSC241240) and oxaliplatin (NSC266046), were obtained from the National Cancer Institute (NCI) Developmental Therapeutics Program Chemical Repository (21). The FDA-approved anticancer drug set is available from the Developmental Therapeutics Program at https://dtp.cancer.gov/organization/dscb/obtaining/. […] The stock solutions were prepared in dimethyl sulfoxide (DMSO, Sigma-Aldrich, St. Louis, MO, cat. D2650), except for the platinum compounds which were prepared in saline (Quality Biological, Gaithersburg, MD, cat. 114-055-101), at 800-fold the tested concentration and stored at -70 degrees C prior to their use. All drugs and investigational agents were tested over a range starting from a high concentration at or near the clinical Cmax and decreasing in half-log increments. If the clinical Cmax for an agent had not been determined, the highest concentration tested was 10 microM, except for SN-38, which was tested at a high concentration of 1 microM.
Cell Culture. All cells were maintained in an incubator at 37 degrees C and 5% CO2 with 95% humidity. The PDC lines were cultured according to standard operating procedures established by the NCI PDMR (https://pdmr.cancer.gov). Table 3 of the manuscript, lists the cell lines along with the number of the three cell types plated to form the mct-spheroids and media for tumor cell growth. After thawing, all PDC lines, except 997537-175-T-J1-PDC and 415267-285-R-J2-PDC, were cultured in Matrigel-coated flasks prepared with a working solution of 1X Ham's F-12 nutrient mix, without supplementation (Thermo Fisher Scientific, cat. 11765054), 100 U/mL penicillin-streptomycin (Thermo Fisher Scientific, cat. 15140122), and 2.5% Matrigel (Corning Inc., Corning, NY, cat. 354248) for the first three passages. The two PDC lines 997537-175-T-J1-PDC and 415267-285-R-J2-PDC were cultured on uncoated flasks. The 857933-349-R-J2-PDC line was cultured in 6C/Colon 1B media containing advanced DMEM/F-12 (Thermo Fisher Scientific, cat. 12634028), 10 mM HEPES (Thermo Fisher Scientific, cat. 15630080), 1X GlutaMAX supplement (Thermo Fisher Scientific, cat. 35050061), 0.1 mg/mL primocin (InvivoGen, San Diego, CA, cat. ant-pm-2), 10% defined fetal bovine serum, heat inactivated (HyClone Laboratories Inc., Logan, UT, cat. SH30070.03HI), 50% L-WRN conditioned media (ATCC, cat. CRL-3276), 1.25 mM N-Acetyl-L-cysteine (Sigma-Aldrich, cat. A9165), 10 mM nicotinamide (Sigma-Aldrich, cat. N0636), 1X B-27 supplement (Thermo Fisher Scientific, cat. 17504044), 1X N-2 supplement (Thermo Fisher Scientific, cat. […]
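Further: spheroids exposed to compounds for seven days.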
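Wherever viability, T/C is given: 100% = DMSO vehicle control viability.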

**Q.** For Nc1ccn(C2OC(CO)C(O)C2(F)F)c(=O)n1 (stereo unspecified) + Nc1ccc(C#CCN(C(=O)Cc2ncc(C(F)(F)F)cc2C(F)(F)F)c2ccc(F)cc2)nn1, which IC50 (curve of first compound, second compound 0.0316 µM) is on record?
**A.** < 31.6 nM

**Q.** What about the IC50 (curve of first compound, second compound 0.1 µM) of the same molecule?
**A.** < 31.6 nM

**Q.** What about the IC50 (curve of first compound, second compound 0.316 µM) of the same molecule?
**A.** < 31.6 nM

**Q.** What about the IC50 (curve of first compound, second compound 1 µM) of the same molecule?
**A.** < 31.6 nM

**Q.** What about the IC50 (curve of first compound, second compound 3.16 µM) of the same molecule?
**A.** < 31.6 nM

**Q.** And the IC50 (curve of first compound, second compound 10 µM)?
**A.** < 31.6 nM

**Q.** And the viability, T/C (second compound 0.0316 µM, first compound 0.0316 µM)?
**A.** 27.5%

**Q.** And the viability, T/C (second compound 0.0316 µM, first compound 0.1 µM)?
**A.** 18%

**Q.** What about the viability, T/C (second compound 0.0316 µM, first compound 0.316 µM) of the same molecule?
**A.** 17.3%

**Q.** What about the viability, T/C (second compound 0.0316 µM, first compound 1 µM) of the same molecule?
**A.** 17.3%

**Q.** What about the viability, T/C (second compound 0.0316 µM, first compound 3.16 µM) of the same molecule?
**A.** 17.6%

**Q.** And the viability, T/C (second compound 0.0316 µM, first compound 10 µM)?
**A.** 12.2%

**Q.** What about the viability, T/C (second compound 0.1 µM, first compound 0.0316 µM) of the same molecule?
**A.** 33.5%

**Q.** And the viability, T/C (second compound 0.1 µM, first compound 0.1 µM)?
**A.** 18%

**Q.** And the viability, T/C (second compound 0.1 µM, first compound 0.316 µM)?
**A.** 18.8%

**Q.** What about the viability, T/C (second compound 0.1 µM, first compound 1 µM) of the same molecule?
**A.** 15.2%

**Q.** And the viability, T/C (second compound 0.1 µM, first compound 3.16 µM)?
**A.** 15.3%

**Q.** What about the viability, T/C (second compound 0.1 µM, first compound 10 µM) of the same molecule?
**A.** 16.1%

**Q.** What about the viability, T/C (second compound 0.316 µM, first compound 0.0316 µM) of the same molecule?
**A.** 32.9%

**Q.** And the viability, T/C (second compound 0.316 µM, first compound 0.1 µM)?
**A.** 17.4%

**Q.** What about the viability, T/C (second compound 0.316 µM, first compound 0.316 µM) of the same molecule?
**A.** 15.9%

**Q.** And the viability, T/C (second compound 0.316 µM, first compound 1 µM)?
**A.** 16.3%

**Q.** And the viability, T/C (second compound 0.316 µM, first compound 3.16 µM)?
**A.** 16.4%

**Q.** And the viability, T/C (second compound 0.316 µM, first compound 10 µM)?
**A.** 15.9%

**Q.** And the viability, T/C (second compound 1 µM, first compound 0.0316 µM)?
**A.** 30.1%

**Q.** And the viability, T/C (second compound 1 µM, first compound 0.1 µM)?
**A.** 17.6%

**Q.** What about the viability, T/C (second compound 1 µM, first compound 0.316 µM) of the same molecule?
**A.** 18%

**Q.** And the viability, T/C (second compound 1 µM, first compound 1 µM)?
**A.** 16.6%

**Q.** And the viability, T/C (second compound 1 µM, first compound 3.16 µM)?
**A.** 19%

**Q.** What about the viability, T/C (second compound 1 µM, first compound 10 µM) of the same molecule?
**A.** 14.2%

**Q.** What about the viability, T/C (second compound 3.16 µM, first compound 0.0316 µM) of the same molecule?
**A.** 27.4%

**Q.** What about the viability, T/C (second compound 3.16 µM, first compound 0.1 µM) of the same molecule?
**A.** 19.8%

**Q.** What about the viability, T/C (second compound 3.16 µM, first compound 0.316 µM) of the same molecule?
**A.** 15.3%

**Q.** And the viability, T/C (second compound 3.16 µM, first compound 1 µM)?
**A.** 17.1%

**Q.** What about the viability, T/C (second compound 3.16 µM, first compound 3.16 µM) of the same molecule?
**A.** 16.6%

**Q.** What about the viability, T/C (second compound 3.16 µM, first compound 10 µM) of the same molecule?
**A.** 15.4%

**Q.** And the viability, T/C (second compound 10 µM, first compound 0.0316 µM)?
**A.** 40.4%

**Q.** What about the viability, T/C (second compound 10 µM, first compound 0.1 µM) of the same molecule?
**A.** 23.2%

**Q.** And the viability, T/C (second compound 10 µM, first compound 0.316 µM)?
**A.** 20.3%

**Q.** What about the viability, T/C (second compound 10 µM, first compound 1 µM) of the same molecule?
**A.** 19.1%

**Q.** And the viability, T/C (second compound 10 µM, first compound 3.16 µM)?
**A.** 19.4%

**Q.** And the viability, T/C (second compound 10 µM, first compound 10 µM)?
**A.** 14.9%

**Q.** CC[C@@]1(O)C(=O)OCc2c1cc1n(c2=O)Cc2cc3c(CN(C)C)c(O)ccc3nc2-1 was tested. Which viability, T/C (compound 0.000316 µM) did it give?
**A.** 101% and 91.4% and 104%

**Q.** What about the viability, T/C (compound 0.001 µM) of the same molecule?
**A.** 99.7% and 100% and 110%

**Q.** What about the viability, T/C (compound 0.00316 µM) of the same molecule?
**A.** 87.8% and 92.4% and 88.8%

**Q.** What about the viability, T/C (compound 0.01 µM) of the same molecule?
**A.** 103% (2×) and 107%

**Q.** What about the viability, T/C (compound 0.0316 µM) of the same molecule?
**A.** 101% and 92.7% and 97.3%

**Q.** What about the viability, T/C (compound 0.1 µM) of the same molecule?
**A.** 71.1% and 63.3% and 63.1%

**Q.** And the IC50 (curve of compound)?
**A.** > 100 nM

**Q.** For CCCS(=O)(=O)Nc1ccc(F)c(C(=O)c2c[nH]c3ncc(-c4ccc(Cl)cc4)cc23)c1F, which viability, T/C (compound 0.0316 µM) is on record?
**A.** 104% and 98.2% and 96.2%

**Q.** What about the viability, T/C (compound 0.1 µM) of the same molecule?
**A.** 108% and 92.2% and 102%

**Q.** What about the viability, T/C (compound 0.316 µM) of the same molecule?
**A.** 111% and 95.7% and 82.7%

**Q.** And the viability, T/C (compound 1 µM)?
**A.** 90.1% and 79.7% and 80.1%

**Q.** And the viability, T/C (compound 3.16 µM)?
**A.** 83.9% and 85.2% and 81.8%

**Q.** What about the viability, T/C (compound 10 µM) of the same molecule?
**A.** 40.6% and 36.2% and 25.4%

**Q.** What about the IC50 (curve of compound) of the same molecule?
**A.** 7790 nM and 7060 nM and 5830 nM
